This is an account of results in patent US20120052057A9, “METHOD FOR SELECTING RESPONDERS TO BLOCKADE OF INTEGRIN RECEPTORS” (priority 2007, published 2012).

“Also recorded” adds a separate entry of the source.

One test has as its target T1, α2β1 integrin receptors (Homo sapiens, UniProt P05556+P17301).
T1 construct: endogenous in cells; host or cells: platelets in anticoagulated whole blood of healthy donors
The test is described as follows: PFA-100 platelet function analysis, whole blood closure time. Format: cell-based. Conditions: Collagen/ADP cartridges, vs untreated control. The protocol:
The responsiveness of the genotyped healthy volunteers to a treatment involving the blockade of α2β1 integrin receptors was assessed by measuring the effect of synthetic α2β1 integrin inhibitors, such as sulphonamide derivatives disclosed e.g. in WO 2005/090298, on whole blood closure time in PFA-100 platelet function analysis. The PFA-100 analyzer is a high shear-inducing device that simulates primary haemostasis after injury of a small vessel. The system comprises a test-cartridge containing a biologically active membrane coated with collagen plus adenosine diphosphate (ADP). An anticoaculated whole blood sample is run through a capillary under a constant vacuum. […] Synthetic α2β1 integrin inhibitor was added to the whole blood sample obtained from each healthy volunteer, and the closure time was measured with PFA-100. […]
The effect of a synthetic α2β1 integrin inhibitor, sodium salt of 4-({[3-(4-fluorophenyl)phenyl]sulfonyl}amino)phenyl phenyl ketone (BTT-3016), on whole blood closure time in PFA-100 analysis was determined for donors representing each genotypic population. […] Samples were incubated at room temperature for 10 min., dispensed into PFA Collagen/ADP cartridges, and closure time was determined with PFA-100 (Dade Behring).

Test [1] addresses T2, α2 integrin over expressing CHO cell clone (CHO-α2) (Homo sapiens, UniProt P17301).
T2 construct: expressed in transfected cells; host or cells: CHO cell clone over-expressing α2 integrin (CHO-α2)
Nature of the test: Binding of C^14-labeled integrin inhibitor to CHO-α2 cells. The settings on record: for binding of labeled compound in the presence of EDTA: CHO-α2 cells, 20 mM EDTA, 10 μM compound. The protocol:
(§1) The binding of C^14-labeled integrin inhibitory compound, hydrochloride salt of [4-(dimethylamino)phenyl]{[3-(4-fluorophenyl)phenyl]-sulfonyl}methylamine, was studied with CHO-wt cells and α2 integrin over expressing CHO cell clone (CHO-α2). CHO-wt cells have no collagen receptor integrins on their cell surface. Cells were fixed in 2% formaldehyde in PBS. After that cells were washed and suspended in reaction buffer (50 mM Tris-HCl pH 7.4, 5 mM MgCl2). To all samples 10 μM C^14-labeled inhibitory compound was added and the cells were incubated in the presence or absence of 20 mM EDTA for 1 h in +4° C. 20000 cells from each sample were loaded to GF/B glass microfibre filter (Whatman) and the samples were washed with 10 mL of the reaction buffer. The membranes were put to scintillation buffer (Optiphase HiSafe3, Perkin Elmer) and the activity was measured with the scintillation counter (Wallac 1415).

A further test concerns CHO-wt cells. Nature of the test: Binding of C^14-labeled integrin inhibitor to CHO-wt cells. The settings on record: 20 mM EDTA, 10 μM compound, listed as C^u-labeled integrin inhibitor. The protocol: as §1

T1 sequence (P17301 30-1181): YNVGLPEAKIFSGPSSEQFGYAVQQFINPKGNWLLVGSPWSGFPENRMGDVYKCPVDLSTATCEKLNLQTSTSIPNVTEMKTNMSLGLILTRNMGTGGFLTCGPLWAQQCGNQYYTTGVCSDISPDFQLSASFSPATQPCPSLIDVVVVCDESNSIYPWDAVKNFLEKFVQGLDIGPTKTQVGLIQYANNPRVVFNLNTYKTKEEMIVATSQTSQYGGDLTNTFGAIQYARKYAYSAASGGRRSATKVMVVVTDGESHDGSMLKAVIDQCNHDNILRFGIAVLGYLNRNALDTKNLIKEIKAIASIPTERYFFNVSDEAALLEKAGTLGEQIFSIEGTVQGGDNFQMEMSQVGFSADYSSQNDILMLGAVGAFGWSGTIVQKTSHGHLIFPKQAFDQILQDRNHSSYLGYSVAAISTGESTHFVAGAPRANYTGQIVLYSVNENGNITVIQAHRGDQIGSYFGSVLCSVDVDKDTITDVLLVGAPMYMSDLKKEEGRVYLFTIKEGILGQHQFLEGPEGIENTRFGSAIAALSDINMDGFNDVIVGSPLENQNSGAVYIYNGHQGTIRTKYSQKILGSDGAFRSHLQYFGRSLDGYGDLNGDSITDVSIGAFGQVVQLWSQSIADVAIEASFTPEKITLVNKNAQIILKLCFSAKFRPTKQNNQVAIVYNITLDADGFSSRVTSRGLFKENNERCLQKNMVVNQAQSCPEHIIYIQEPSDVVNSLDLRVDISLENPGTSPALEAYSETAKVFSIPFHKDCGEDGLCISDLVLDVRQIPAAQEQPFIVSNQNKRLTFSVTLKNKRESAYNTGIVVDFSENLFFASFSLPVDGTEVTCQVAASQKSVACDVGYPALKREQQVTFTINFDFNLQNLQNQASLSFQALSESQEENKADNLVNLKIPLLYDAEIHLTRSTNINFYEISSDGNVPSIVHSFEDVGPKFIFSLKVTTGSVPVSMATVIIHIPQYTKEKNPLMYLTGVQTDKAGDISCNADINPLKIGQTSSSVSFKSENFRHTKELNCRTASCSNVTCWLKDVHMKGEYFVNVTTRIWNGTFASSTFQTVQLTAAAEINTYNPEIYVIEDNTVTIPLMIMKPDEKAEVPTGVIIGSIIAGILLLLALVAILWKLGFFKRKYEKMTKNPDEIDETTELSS
T1 sequence (P05556 21-798): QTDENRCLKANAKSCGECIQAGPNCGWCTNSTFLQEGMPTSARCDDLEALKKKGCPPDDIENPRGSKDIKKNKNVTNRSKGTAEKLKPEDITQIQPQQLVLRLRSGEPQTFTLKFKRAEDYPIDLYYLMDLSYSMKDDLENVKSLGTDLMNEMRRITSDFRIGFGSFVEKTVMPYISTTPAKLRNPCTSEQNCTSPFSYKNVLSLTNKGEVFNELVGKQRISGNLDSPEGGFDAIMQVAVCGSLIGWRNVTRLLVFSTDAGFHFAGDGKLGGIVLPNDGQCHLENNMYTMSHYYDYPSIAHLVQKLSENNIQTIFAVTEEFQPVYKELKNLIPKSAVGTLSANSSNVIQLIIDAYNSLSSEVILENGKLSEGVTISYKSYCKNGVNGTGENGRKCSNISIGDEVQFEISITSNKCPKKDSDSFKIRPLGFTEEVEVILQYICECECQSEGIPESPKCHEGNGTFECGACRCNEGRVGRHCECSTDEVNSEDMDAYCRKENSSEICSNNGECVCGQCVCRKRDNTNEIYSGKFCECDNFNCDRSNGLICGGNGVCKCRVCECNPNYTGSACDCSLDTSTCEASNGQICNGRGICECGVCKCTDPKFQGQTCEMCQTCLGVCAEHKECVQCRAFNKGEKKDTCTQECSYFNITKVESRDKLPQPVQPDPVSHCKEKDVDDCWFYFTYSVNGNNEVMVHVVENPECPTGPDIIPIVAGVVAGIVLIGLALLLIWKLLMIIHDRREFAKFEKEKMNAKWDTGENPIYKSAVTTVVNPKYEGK
T2 sequence (P17301 30-1181): as the sequence (P17301 30-1181) above
T2 sequence (P05556 21-798 partner): as the sequence (P05556 21-798) above

Consider `O=C(c1ccccc1)c1ccc(NS(=O)(=O)c2cccc(-c3ccc(F)cc3)c2)cc1` [BTT-3016, 4-({[3-(4-fluorophenyl)phenyl]sulfonyl}amino)phenyl phenyl ketone], for which the “effect on whole blood closure time” value is reported as “increases the blood closure time; also recorded: increase the closure time statistically significantly” at α2β1 integrin receptors (donors with high α2β1 expression (MEF≧35), genotype TT807 or CT807) and “non-responsive; also recorded: not efficacious” at α2β1 integrin receptors (donors with low integrin expression, genotype CC807).

Regarding `CN(C)c1ccc(NCS(=O)(=O)c2cccc(-c3ccc(F)cc3)c2)cc1` [[4-(dimethylamino)phenyl]{[3-(4-fluorophenyl)phenyl]-sulfonyl}methylamine], the “binding of labeled compound to cells” value in test [1] (10 μM C^14-labeled compound, 1 h, +4° C, CHO-α2 compared with CHO-wt) is listed as “bound more efficiently to CHO-α2 cells than to CHO-wt cells”. Besides, the “binding of labeled compound in the presence of EDTA” value in test [1] is on record as “could be inhibited”; in test [1] (listed as C^u-labeled integrin inhibitor) it was “EDTA inhibits the binding”; with CHO-wt cells, “not to CHO-wild type (wt) cells”.
